According to PubChem BioAssay (NCI):
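All cell lines were grown in 96-well plates and treated with compound for 48 hours. TGI: concentration producing complete growth inhibition.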

What was measured:
Test in all cases: growth of human tumour cells (NCI), 48 h
MOLT-4 leukemia = tested on: MOLT-4 leukemia
RPMI-8226 leukemia = tested on: RPMI-8226 leukemia
HCT-15 colon = tested on: HCT-15 colon
SNB-19 CNS = tested on: SNB-19 CNS
UACC-257 melanoma = tested on: UACC-257 melanoma
BT-549 breast = tested on: BT-549 breast
ACHN renal = tested on: ACHN renal
COLO 205 colon = tested on: COLO 205 colon
A549 NSCLC = tested on: A549 NSCLC
K-562 leukemia = tested on: K-562 leukemia
NCI-H23 lung = tested on: NCI-H23 lung
HOP-62 NSCLC = tested on: HOP-62 NSCLC
SK-MEL-2 melanoma = tested on: SK-MEL-2 melanoma
OVCAR-8 ovarian = tested on: OVCAR-8 ovarian
DU-145 prostate = tested on: DU-145 prostate
UACC-62 melanoma = tested on: UACC-62 melanoma
OVCAR-5 ovarian = tested on: OVCAR-5 ovarian
MDA-N = tested on: MDA-N
MCF7 breast = tested on: MCF7 breast
PC-3 prostate = tested on: PC-3 prostate
786-0 renal = tested on: 786-0 renal
KM12 colon = tested on: KM12 colon
SF-295 CNS = tested on: SF-295 CNS
UO-31 renal = tested on: UO-31 renal
OVCAR-3 ovarian = tested on: OVCAR-3 ovarian
SK-MEL-5 melanoma = tested on: SK-MEL-5 melanoma
HCT-116 colon = tested on: HCT-116 colon
CAKI-1 renal = tested on: CAKI-1 renal
LOX IMVI melanoma = tested on: LOX IMVI melanoma
IGROV1 ovarian = tested on: IGROV1 ovarian
NCI-H460 lung = tested on: NCI-H460 lung
EKVX NSCLC = tested on: EKVX NSCLC
SF-268 CNS = tested on: SF-268 CNS
TK-10 renal = tested on: TK-10 renal
SW-620 colon = tested on: SW-620 colon
T-47D breast = tested on: T-47D breast
RXF 393 renal = tested on: RXF 393 renal
HS 578T breast = tested on: HS 578T breast
NCI-H522 lung = tested on: NCI-H522 lung
SF-539 CNS = tested on: SF-539 CNS
SN12C renal = tested on: SN12C renal
OVCAR-4 ovarian = tested on: OVCAR-4 ovarian
HL-60(TB) leukemia = tested on: HL-60(TB) leukemia
M14 melanoma = tested on: M14 melanoma
SK-MEL-28 melanoma = tested on: SK-MEL-28 melanoma
MDA-MB-435 = tested on: MDA-MB-435
U251 CNS = tested on: U251 CNS
HOP-92 NSCLC = tested on: HOP-92 NSCLC
NCI/ADR-RES ovarian = tested on: NCI/ADR-RES ovarian
SK-OV-3 ovarian = tested on: SK-OV-3 ovarian
MDA-MB-231 breast = tested on: MDA-MB-231 breast
SNB-75 CNS = tested on: SNB-75 CNS
HCC-2998 colon = tested on: HCC-2998 colon
CCRF-CEM leukemia = tested on: CCRF-CEM leukemia
MALME-3M melanoma = tested on: MALME-3M melanoma
HT29 colon = tested on: HT29 colon
A498 renal = tested on: A498 renal
NCI-H226 lung = tested on: NCI-H226 lung
SR leukemia = tested on: SR leukemia

`Cc1ccc(Cl)c2c(=O)c3ccc([N+](=O)[O-])cc3sc12` was tested, and the TGI (MOLT-4 leukemia) was > 100 µM, the TGI (RPMI-8226 leukemia) was > 100 µM and the TGI (HCT-15 colon) was > 100 µM. The TGI (SNB-19 CNS) was > 100 µM, the TGI (UACC-257 melanoma) was > 100 µM and the TGI (BT-549 breast) was > 100 µM. The TGI (ACHN renal) was > 100 µM, the TGI (COLO 205 colon) was > 100 µM and the TGI (A549 NSCLC) was > 100 µM. For the same molecule, the TGI (K-562 leukemia) was > 100 µM, the TGI (NCI-H23 lung) was > 100 µM and the TGI (HOP-62 NSCLC) was > 100 µM. The TGI (SK-MEL-2 melanoma) was > 100 µM, the TGI (OVCAR-8 ovarian) was > 100 µM and the TGI (DU-145 prostate) was > 100 µM. The TGI (UACC-62 melanoma) was > 100 µM, the TGI (OVCAR-5 ovarian) was > 100 µM and the TGI (MDA-N) was > 100 µM. The TGI (MCF7 breast) was > 100 µM, the TGI (PC-3 prostate) was > 100 µM and the TGI (786-0 renal) was > 100 µM. The TGI (KM12 colon) was > 100 µM, the TGI (SF-295 CNS) was > 100 µM and the TGI (UO-31 renal) was > 100 µM. For the same molecule, the TGI (OVCAR-3 ovarian) was > 100 µM, the TGI (SK-MEL-5 melanoma) was > 100 µM and the TGI (HCT-116 colon) was > 100 µM. The TGI (CAKI-1 renal) was > 100 µM.
For `CCOc1ccc(N=NC2C(=O)N(C(=O)CC(=O)Nc3ccccc3OC)N=C2C)cc1` (stereo not given), the TGI (LOX IMVI melanoma) was > 100 µM, the TGI (MOLT-4 leukemia) was > 100 µM and the TGI (RPMI-8226 leukemia) was > 100 µM. The TGI (IGROV1 ovarian) was > 100 µM, the TGI (NCI-H460 lung) was > 42.8 µM and the TGI (EKVX NSCLC) was > 100 µM. The TGI (SF-268 CNS) was 97 µM, the TGI (HCT-15 colon) was > 100 µM and the TGI (TK-10 renal) was > 52.3 µM. The TGI (SW-620 colon) was 52.9 µM, the TGI (SNB-19 CNS) was > 34.8 µM and the TGI (T-47D breast) was > 100 µM. The TGI (UACC-257 melanoma) was > 100 µM, the TGI (BT-549 breast) was > 48.4 µM and the TGI (RXF 393 renal) was 26.3 µM. The TGI (ACHN renal) was > 100 µM, the TGI (COLO 205 colon) was > 100 µM and the TGI (A549 NSCLC) was > 100 µM. For the same molecule, the TGI (K-562 leukemia) was > 100 µM, the TGI (HS 578T breast) was > 100 µM and the TGI (NCI-H23 lung) was > 100 µM. The TGI (NCI-H522 lung) was 55.3 µM, the TGI (HOP-62 NSCLC) was > 49.5 µM and the TGI (SK-MEL-2 melanoma) was > 58.7 µM. The TGI (SF-539 CNS) was > 57.9 µM, the TGI (SN12C renal) was > 100 µM and the TGI (OVCAR-4 ovarian) was > 100 µM. The TGI (OVCAR-8 ovarian) was > 100 µM, the TGI (DU-145 prostate) was > 100 µM and the TGI (HL-60(TB) leukemia) was 22.5 µM. The TGI (M14 melanoma) was > 100 µM, the TGI (UACC-62 melanoma) was > 100 µM and the TGI (SK-MEL-28 melanoma) was > 100 µM. For the same molecule, the TGI (MDA-MB-435) was 4.12 µM, the TGI (U251 CNS) was > 63.4 µM and the TGI (OVCAR-5 ovarian) was > 100 µM. The TGI (MDA-N) was 6.14 µM, the TGI (HOP-92 NSCLC) was > 50.6 µM and the TGI (NCI/ADR-RES ovarian) was > 100 µM. The TGI (MCF7 breast) was > 100 µM, the TGI (PC-3 prostate) was > 100 µM and the TGI (SK-OV-3 ovarian) was > 87.4 µM. The TGI (786-0 renal) was > 57.3 µM, the TGI (MDA-MB-231 breast) was > 51.7 µM and the TGI (SNB-75 CNS) was 23.6 µM. The TGI (KM12 colon) was > 100 µM, the TGI (SF-295 CNS) was > 53.8 µM and the TGI (UO-31 renal) was > 100 µM. For the same molecule, the TGI (HCC-2998 colon) was > 60.3 µM, the TGI (OVCAR-3 ovarian) was > 100 µM and the TGI (CCRF-CEM leukemia) was > 100 µM. The TGI (MALME-3M melanoma) was > 100 µM, the TGI (HT29 colon) was > 100 µM and the TGI (A498 renal) was > 31.6 µM. For the same molecule, the TGI (SK-MEL-5 melanoma) was > 100 µM, the TGI (HCT-116 colon) was > 100 µM and the TGI (NCI-H226 lung) was > 100 µM. For the same molecule, the TGI (CAKI-1 renal) was > 64.7 µM.
`CC(=O)C1C(=O)C(=O)N(c2cccc(C)c2C)C1=O` (stereo not given) was tested, and the TGI (LOX IMVI melanoma) was > 100 µM, the TGI (MOLT-4 leukemia) was > 100 µM and the TGI (IGROV1 ovarian) was > 100 µM. For the same molecule, the TGI (EKVX NSCLC) was > 100 µM, the TGI (TK-10 renal) was > 100 µM and the TGI (SNB-19 CNS) was > 100 µM. The TGI (T-47D breast) was > 100 µM, the TGI (UACC-257 melanoma) was > 100 µM and the TGI (BT-549 breast) was > 100 µM. For the same molecule, the TGI (ACHN renal) was > 100 µM, the TGI (COLO 205 colon) was > 100 µM and the TGI (A549 NSCLC) was > 100 µM. The TGI (NCI-H23 lung) was > 100 µM, the TGI (HOP-62 NSCLC) was > 100 µM and the TGI (SK-MEL-2 melanoma) was > 100 µM. For the same molecule, the TGI (SF-539 CNS) was > 100 µM, the TGI (SN12C renal) was > 100 µM and the TGI (OVCAR-8 ovarian) was > 100 µM. For the same molecule, the TGI (DU-145 prostate) was > 100 µM, the TGI (HL-60(TB) leukemia) was > 100 µM and the TGI (M14 melanoma) was > 100 µM. The TGI (UACC-62 melanoma) was > 100 µM, the TGI (OVCAR-5 ovarian) was > 100 µM and the TGI (MDA-N) was > 100 µM. For the same molecule, the TGI (HOP-92 NSCLC) was > 100 µM, the TGI (NCI/ADR-RES ovarian) was > 100 µM and the TGI (MCF7 breast) was > 100 µM. The TGI (PC-3 prostate) was > 100 µM, the TGI (SK-OV-3 ovarian) was > 100 µM and the TGI (786-0 renal) was > 100 µM. The TGI (MDA-MB-231 breast) was > 100 µM, the TGI (SNB-75 CNS) was > 100 µM and the TGI (KM12 colon) was > 100 µM. For the same molecule, the TGI (SF-295 CNS) was > 100 µM, the TGI (UO-31 renal) was > 100 µM and the TGI (OVCAR-3 ovarian) was > 100 µM. For the same molecule, the TGI (HT29 colon) was > 100 µM, the TGI (SK-MEL-5 melanoma) was > 100 µM and the TGI (HCT-116 colon) was > 100 µM. For the same molecule, the TGI (NCI-H226 lung) was > 100 µM and the TGI (CAKI-1 renal) was > 100 µM.
`COCO[C@@H]1C[C@H]2C(O)Nc3ccccc3C(=O)N2C1` (stereo not given in full) was tested, and the TGI (LOX IMVI melanoma) was > 100 µM, the TGI (MOLT-4 leukemia) was > 100 µM and the TGI (RPMI-8226 leukemia) was > 100 µM. The TGI (IGROV1 ovarian) was > 100 µM, the TGI (NCI-H460 lung) was > 100 µM and the TGI (EKVX NSCLC) was > 100 µM. The TGI (SF-268 CNS) was > 100 µM, the TGI (HCT-15 colon) was > 100 µM and the TGI (TK-10 renal) was > 100 µM. For the same molecule, the TGI (SW-620 colon) was > 100 µM, the TGI (SNB-19 CNS) was > 100 µM and the TGI (T-47D breast) was > 100 µM. The TGI (UACC-257 melanoma) was > 100 µM, the TGI (RXF 393 renal) was > 100 µM and the TGI (ACHN renal) was > 100 µM. The TGI (COLO 205 colon) was > 100 µM, the TGI (A549 NSCLC) was > 100 µM and the TGI (K-562 leukemia) was > 100 µM. The TGI (HS 578T breast) was > 100 µM, the TGI (NCI-H23 lung) was > 100 µM and the TGI (HOP-62 NSCLC) was > 100 µM. The TGI (SK-MEL-2 melanoma) was > 100 µM, the TGI (SF-539 CNS) was > 100 µM and the TGI (OVCAR-4 ovarian) was > 100 µM. The TGI (OVCAR-8 ovarian) was > 100 µM, the TGI (DU-145 prostate) was > 100 µM and the TGI (HL-60(TB) leukemia) was > 100 µM. For the same molecule, the TGI (M14 melanoma) was > 100 µM, the TGI (UACC-62 melanoma) was > 100 µM and the TGI (SK-MEL-28 melanoma) was > 100 µM. The TGI (MDA-MB-435) was > 100 µM, the TGI (U251 CNS) was > 100 µM and the TGI (OVCAR-5 ovarian) was > 100 µM. The TGI (MDA-N) was > 100 µM, the TGI (HOP-92 NSCLC) was > 100 µM and the TGI (NCI/ADR-RES ovarian) was > 100 µM. The TGI (MCF7 breast) was > 100 µM, the TGI (PC-3 prostate) was > 100 µM and the TGI (SK-OV-3 ovarian) was > 100 µM. For the same molecule, the TGI (MDA-MB-231 breast) was > 100 µM, the TGI (SNB-75 CNS) was > 100 µM and the TGI (SR leukemia) was > 100 µM. For the same molecule, the TGI (KM12 colon) was > 100 µM, the TGI (SF-295 CNS) was > 100 µM and the TGI (UO-31 renal) was > 100 µM. The TGI (HCC-2998 colon) was > 100 µM, the TGI (OVCAR-3 ovarian) was > 100 µM and the TGI (CCRF-CEM leukemia) was > 100 µM. For the same molecule, the TGI (HT29 colon) was > 100 µM, the TGI (A498 renal) was > 100 µM and the TGI (SK-MEL-5 melanoma) was > 100 µM. The TGI (NCI-H226 lung) was > 100 µM and the TGI (CAKI-1 renal) was > 100 µM.
